Values quoted from earlier work as cited in US10466244B2, “Methods and materials for identifying therapeutic response in chronic myeloid leukemia” (RAJIV GANDHI CENTRE FOR BIOTECHNOLOGY, priority 2013, dated 2019).

Tested on: BCR-ABL
Details: relative to imatinib

Cc1cn(-c2cc(NC(=O)c3ccc(C)c(Nc4nccc(-c5cccnc5)n4)c3)cc(C(F)(F)F)c2)cn1 [Nilotinib, nilotinib]
increased potency compared with imatinib against BCR-ABL: 20- to 30 fold
